Where two headings read alike, the source gives them in different places. Non-standard residues stand in square brackets, D forms with d. Residues, ends and D or L forms follow the SMILES beside them. No end group written: not given here.

Data set [1] concerns linearized DNA (pIVEX 2.3d plasmid). Briefly: Gel retardation assay, in vitro interaction with DNA. As to conditions: 100 ng DNA, 100-500 ng peptide, RT 1 h, 1% agarose gel; all tested conditions; three experiments. Format: binding. The procedure: One hundred ng of linearized DNA (pIVEX 2.3d plasmid) were incubated with increasing concentrations of the L- or D-peptides (0, 100, 150, 175, 200, 250, 275, 300, 350, 400, 450, 500 ng) at RT for 1 h. Samples were run into a 1% agarose gel in TAE buffer at 50 V and visualized in a Gel Doc X3+ (Biorad, Hercules, CA, USA). DNA band intensities were measured using the Image Lab software 6.1 (Biorad, Hercules, CA, USA). The band intensity reduction was calculated as the ratio between the band intensity in the presence of peptide over that of the untreated DNA. To compare the DNA binding activities of L- and D- peptides, for each peptide amount, we determined the ratio between the band intensity reduction with D-Q53 CecB and that with L-Q53 CecB. Three experiments have been performed.

The test system of a further data set is P. aeruginosa ATCC 25668. Briefly: CFU assay of medium over treated 24 h old biofilm. It counts as cell-based, Pseudomonas aeruginosa. As to conditions: for mean CFUs/mL decrement vs untreated control: 1 MIC, 1 h; for living bacterial cells in the medium, Mean ± SEM: 1 h treatment of 24 h-old biofilm with 1 MIC (2.2 μM), four experiments, control 2.67 ± 2.67 × 10^15.

The test system of data set [2] is CCD-34Lu lung fibroblasts. Description: in vitro. It counts as cell-based, human. The procedure: (§1) The peptide cytotoxicity against human cells was evaluated using CCD-34Lu-lung fibroblasts and A549-lung adenocarcinoma cells. Moreover, 6 × 10^3 cells in DMEM medium added with 10% FBS were seeded in 96-well sterile plates. After 24 h, cells were incubated with increasing concentrations of peptide (final concentrations of 5, 10, 25, 50, and 100 µM, with an additional concentration of 200 µM in CCD-34Lu) for 24 h at 37 °C (three replicates per condition). Cell viability was measured by removing the exhausted medium, adding 100 µL of DMEM and 20 µL of the MTS solution (Promega). Plates were incubated at 37 °C for 20 min until the complete conversion of the compound. The absorbance was measured at 492 nm using a microplate reader. Cell viability was calculated using the formula: Viability (%)=ODCecB−OD0/ODCtrl−OD0×100, where ODCecB is the OD in the presence of the peptide, ODCtrl is the OD of cells without the peptide, and OD0 is the background absorbance (wells with only medium and MTS compound). The experiment was performed at least twice.

A short description of another data set: in vitro. It counts as cell-based, human. How it is done: as §1
The test system of data set [3] is A549 lung adenocarcinoma cells. Briefly: in vitro. Format: cell-based, human. The procedure: as §1
The subject of data set [4] is human red blood cells (hRBCs). It counts as cell-based. The conditions noted are these: for MHC (minimum hemolytic concentration causing 5% hemolysis of hRBCs): red cells of human, 1 h. How it is done: The peptide hemolytic activity was evaluated against human red blood cells (hRBCs) using the Haemolysis Assay Kit (HaemoScan, Groningen, The Netherlands), following the manufacturer’s instructions. 180 μL of hRBC solution were incubated 1 h at 37 °C with 20 μL of serially diluted L- and D-CecB Q53 peptides (final concentrations of 5, 10, 25, 50, 100, 200 µM) in triplicate. As hemolysis positive and negative controls, hRBC solutions incubated, respectively, with 0.2% Triton X and PBS, were followed in parallel. After centrifugation 10 min at 10,000× g, each supernatant was diluted 1:10 in the Assay Buffer and read at 450 nm with a microplate reader.
Hemolysis was evaluated according to the following equation: Hemolysis (%)=ODCecB−OD0/ODCtrl−OD0×100, where ODCecB is the OD in the presence of the peptide, ODCtrl is the OD of treated controls (0.2% Triton X), and OD0 is the background absorbance. The experiment was performed at least twice.

Data set [5] relates to T1, human neutrophil elastase.
T1 construct: purchased Merck
Description: Enzymatic digestion with human neutrophil elastase, RP-HPLC. Format: in vitro ADME. As to conditions: human, isolated enzyme elastase, pH 7.5. How it is done: L- and D-Q53 CecB peptides, as well as the human LL-37 peptide (Merck, Burlington, MA, USA), were dissolved in 10 mM Tris-HCl, pH 7.5, at a final concentration of 1 mg/mL. Subsequently, 120 μL of each peptide solution were incubated at 37 °C with 20 U of human leukocyte elastase (Merck) or P. aeruginosa elastase (Elastin Products Company, Owensville, MO, USA) and 5 μL of 10 mM Tris-HCl, pH 7.5. At given time intervals (30, 60, 120, and 300 min), a volume corresponding to 30 μg of each peptide was diluted in 70 μL of 1% trifluoroacetic acid (TFA) to stop the reaction. Peptide suspensions,v without any enzyme (undigested controls), were processed in parallel. Each solution was analyzed by RP-HPLC, using a Phenomenex LC C18 analytical column (300 Å, […], 250 × 4.6 mm; Phenomenex, Torrance, CA, USA) and a Widepore C18 security guard cartridge (4 × 3.0 mm; Phenomenex, Torrance, CA, USA), in a 30 min-linear Acetonitrile (ACN) gradient (from 0% to 40% for L- and D-Q53 CecB peptides; from 20% to 60% for LL-37). A Waters Alliance 2695 Separations Module connected to a 996 PDA (Waters, Milford, MA, USA) was employed for RP-HPLC.

The test system of data set [6] is P. aeruginosa (non-mucoid: ATCC 27853; mucoid: ATCC 25668). Set-up: method as in PMID 31045339. The conditions noted are these: planktonic forms; cited from earlier work. The text has this: (§2) We, therefore, determined the anti-Pseudomonas activity of D-Q53 CecB in comparison to the L- counterpart versus the planktonic forms of the same ATCC 27853 and ATCC 25668 strains, and a third POA1-L strain (Lausanne subline).

In data set [7] the test system is P. aeruginosa ATCC 27853 and ATCC 25668 strains. Set-up: method as in PMID 31045339. The conditions noted are these: planktonic forms; cited from earlier work.
Excerpt: as §2

Another data set has as its system trypsin. As to conditions: cited from earlier work. The text has this: Recently, we characterized Q53 CecB, a natural CecB variant derived from the silkworm Bombyx mori. […] Additionally, Q53 CecB maintains an anti-Pseudomonas activity at a high saline concent ...

A word on the cell viability: it is the share of living cells, or the viability signal relative to a control. Read a high cell viability as less harm to the cells. The term IC50 denotes the concentration that inhibits the measured activity by half. High values mean weaker potency in that assay, low ones greater potency in that assay. With `CC[C@@H](C)[C@@H](NC(=O)[C@@H](C)NC(=O)[C@@H](CCCCN)NC(=O)[C@@H](C)NC(=O)[C@@H](CO)NC(=O)CNC(=O)[C@@H](CC(C)C)NC(=O)[C@H](NC(=O)[C@@H](CCC(N)=O)NC(=O)[C@H](NC(=O)[C@@H](C)NC(=O)[C@H]1CCCN1C(=O)CNC(=O)[C@@H](C)NC(=O)[C@@H](CCCCN)NC(=O)[C@H](NC(=O)[C@H](NC(=O)CNC(=O)[C@@H](CC(=O)O)NC(=O)[C@@H](CCCNC(=N)N)NC(=O)[C@H](NC(=O)[C@@H](CC(N)=O)NC(=O)[C@@H](CCCNC(=N)N)NC(=O)CNC(=O)[C@@H](CCSC)NC(=O)[C@@H](CCCCN)NC(=O)[C@@H](CCC(=O)O)NC(=O)[C@H](NC(=O)[C@@H](CCCCN)NC(=O)[C@@H](CCCCN)NC(=O)[C@@H](Cc1ccccc1)NC(=O)[C@H](NC(=O)[C@@H](CCCCN)NC(=O)[C@@H](Cc1c[nH]c2ccccc12)NC(=O)[C@H](N)CCCNC(=N)N)[C@H](C)CC)[C@H](C)CC)[C@H](C)CC)[C@H](C)CC)C(C)C)[C@H](C)CC)C(C)C)C(N)=O` [D-Q53 CecB] (H-[dR][dW][dK][dI][dF][dK][dK][dI][dE][dK][dM]G[dR][dN][dI][dR][dD]G[dI][dV][dK][dA]G[dP][dA][dI][dQ][dV][dL]G[dS][dA][dK][dA][dI]-NH2; N-terminus and C-terminus assumed), the “ratio between the DNA band intensities for D- and L-Q53 CecB” value in data set [1] is recorded as ~ 1. The “mean CFUs/mL decrement vs untreated control” value with P. aeruginosa ATCC 25668 was 7 orders of magnitude. Moreover, the “living bacterial cells in the medium, Mean ± SEM” value in the data set on P. aeruginosa ATCC 25668 is recorded as 6.70 ± 6.6 × 10^8 CFUs/mL. Also, the cell viability in data set [2] (50 µM) is reported as ~ 85%; in data set [2] (100 µM), about 27%; in data set [2] (200 µM), about 4.5%; in data set [3] (50 µM), ~ 79%; in data set [3] (100 µM), about 15%. Besides, the IC50 at 24 h in the data set “in vitro” is 72.6 ± 2.81 µM; in the data set “in vitro” (human), 68 ± 3.71 µM. Also, the mean hemolysis in [4] (100 µM) is given as 5.9%. The “MHC (minimum hemolytic concentration causing 5% hemolysis of hRBCs)” value in data set [4] came to 100 µM.

For orientation: amount remaining means what is left of the initial amount, in per cent. One may read the MIC as the lowest concentration that inhibits growth of the organism. The term MBC denotes the smallest concentration meeting the test's criterion for killing. For “RWKIFKKIEKMGRNIRDGIVKAGPAIQVLGSAKAI-NH2 [L-Q53 CecB]”, the share remaining at 5 h, 1 mg/mL in data set [5] came out at 0.3%. Besides, the MIC in data set [6] was 2.2 µM. Further, the MBC in data set [7] is 11 µM. Moreover, in the data set on P. aeruginosa ATCC 25668, the “mean CFUs/mL decrement vs untreated control” value is 10 orders of magnitude and the “living bacterial cells in the medium, Mean ± SEM” value is on record as 2.89 ± 2.38 × 10^5 CFUs/mL. The “MHC (minimum hemolytic concentration causing 5% hemolysis of hRBCs)” value in data set [4] is over 200 µM. Besides, the “antibacterial activity after trypsin treatment” value in the data set with trypsin was “lost its antibacterial activity”.

(Values after publication PMC10419416, “Fighting Pseudomonas aeruginosa Infections: Antibacterial and Antibiofilm Activity of D-Q53 CecB, a Synthetic Analog of a Silkworm Natural Cecropin B Variant” (International Journal of Molecular Sciences, 2023).)
